pEC50: −log10 of the molar value.
How the values were obtained:
[1] = Metabolic stability in rat liver microsomes assessed as parent compound remaining at 10 uM preincubated for 10 mins followed by NADPH addition measured after 30 mins by liquid chromatographic method; assay type: ADME, microsome; settings: 0.5 h
fMet-Leu-Phe receptor = molecular target: T1, fMet-Leu-Phe receptor (Homo sapiens, UniProt P21462); test: Agonist activity at human FPR1 expressed in human HL60 cells assessed as induction of calcium mobilization measured every 5 secs for 240 secs by Fluo-4-AM dye based fluorometric method; assay type: functional, cell-based; settings: for pEC50: read-out: EC50
T1 sequence (P21462 whole entry): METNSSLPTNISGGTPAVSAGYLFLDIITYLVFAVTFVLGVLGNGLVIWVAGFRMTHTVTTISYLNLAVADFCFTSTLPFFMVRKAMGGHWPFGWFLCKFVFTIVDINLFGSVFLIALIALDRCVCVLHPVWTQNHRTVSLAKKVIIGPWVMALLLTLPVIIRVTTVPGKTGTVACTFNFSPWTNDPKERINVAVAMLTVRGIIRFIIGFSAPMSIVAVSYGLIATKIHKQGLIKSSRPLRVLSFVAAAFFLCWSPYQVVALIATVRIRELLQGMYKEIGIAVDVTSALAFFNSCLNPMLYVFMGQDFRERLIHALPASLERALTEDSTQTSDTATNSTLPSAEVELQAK

[2] = molecular target: T2, N-formyl peptide receptor 2 (Homo sapiens, UniProt P25090); test: Agonist activity at FPR2 in human neutrophils assessed as induction of calcium mobilization measured every 5 secs for 240 secs by Fluo-4-AM dye based fluorometric method; assay type: functional; settings: for pEC50: read-out: EC50
T2 sequence (P25090 whole entry): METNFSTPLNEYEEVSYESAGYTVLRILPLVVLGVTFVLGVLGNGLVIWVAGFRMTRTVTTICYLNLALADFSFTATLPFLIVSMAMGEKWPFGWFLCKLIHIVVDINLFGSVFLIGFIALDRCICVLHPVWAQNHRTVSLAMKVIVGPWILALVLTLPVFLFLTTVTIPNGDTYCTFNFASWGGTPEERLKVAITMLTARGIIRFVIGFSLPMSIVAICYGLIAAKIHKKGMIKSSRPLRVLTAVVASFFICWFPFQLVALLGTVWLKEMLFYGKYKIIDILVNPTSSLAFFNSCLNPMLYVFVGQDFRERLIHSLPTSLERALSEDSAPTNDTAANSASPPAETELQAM

[3] = molecular target: T2, N-formyl peptide receptor 2; test: Agonist activity at human FPR2 expressed in human HL60 cells assessed as induction of calcium mobilization measured every 5 secs for 240 secs by Fluo-4-AM dye based fluorometric method; assay type: functional, cell-based; settings: for pEC50: read-out: EC50
[4] = Half life in rat liver microsomes at 10 uM preincubated for 10 mins followed by NADPH addition by liquid chromatographic method; assay type: ADME, microsome
[5] = molecular target: T3, fMet-Leu-Phe receptor (Homo sapiens) (UniProt P21462); test: Agonist activity at human FPR1 expressed in human HL60 cells assessed as induction of calcium mobilization measured every 5 secs for 240 secs by Fluo-4-AM dye based fluorometric method relative to fMLF; assay type: functional, cell-based
T3 sequence (whole entry): T1 sequence (P21462 whole entry)

[6] = molecular target: T4, N-formyl peptide receptor 2 (Homo sapiens) (UniProt P25090); test: Agonist activity at human FPR2 expressed in human HL60 cells assessed as induction of calcium mobilization measured every 5 secs for 240 secs by Fluo-4-AM dye based fluorometric method relative to WKYMVM; assay type: functional, cell-based
T4 sequence (whole entry): T2 sequence (P25090 whole entry)

[7] = molecular target: T4, N-formyl peptide receptor 2 (Homo sapiens); test: Agonist activity at FPR2 in human neutrophils assessed as induction of calcium mobilization measured every 5 secs for 240 secs by Fluo-4-AM dye based fluorometric method relative to fMLF
[8] = Intrinsic clearance in rat liver microsomes at 10 uM preincubated for 10 mins followed by NADPH addition by liquid chromatographic method; assay type: ADME, microsome

O=C(Nc1ccc([N+](=O)[O-])cc1)N[C@H](Cc1c[nH]c2ccccc12)C(=O)NCC1(c2ccccc2)CC1
Stability [1]: 15%

COc1ccc(NC(=O)N[C@H](Cc2ccc(C#N)cc2)C(=O)NCC2(c3ccc(OC(F)(F)F)cc3)CC2)cc1
EC50 (fMet-Leu-Phe receptor): Not Active | EC50 [2]: Not Active | Stability [1]: 43% | EC50 [3]: Not Active

COc1ccc(NC(=O)N[C@H](Cc2ccc(C#N)cc2)C(=O)NCC2(c3ccc(C)c(F)c3)CC2)cc1
EC50 (fMet-Leu-Phe receptor): Not Active | EC50 [2]: Not Active | Stability [1]: 10% | EC50 [3]: Not Active

N#Cc1ccc(C[C@@H](NC(=O)Nc2ccc(F)cc2)C(=O)NCC2(c3ccc(F)c(Cl)c3)CC2)cc1
t1/2 [4]: 0.783 h | pEC50 (fMet-Leu-Phe receptor): 5.27 | pEC50 [2]: 5.89 | Efficacy [5]: 55% | Efficacy [6]: 90% | Stability [1]: 20% | pEC50 [3]: 6.52 | Efficacy [7]: 95% | Microsomal intrinsic clearance (CLint) [8]: 14.7 µL/min/mg

O=C(Nc1ccc(F)cc1)N[C@H](Cc1c[nH]c2ccccc12)C(=O)NCC1(c2ccccc2)CC1
EC50 (fMet-Leu-Phe receptor): Not Active | EC50 [2]: Not Active | EC50 [3]: Not Active

Cc1ccc(C2(CNC(=O)[C@H](Cc3ccc(C#N)cc3)NC(=O)Nc3ccc(F)cc3)CC2)cc1F
pEC50 (fMet-Leu-Phe receptor): 5.23 | pEC50 [2]: 5.77 | Stability [1]: 39% | pEC50 [3]: 5.52

O=C(Nc1ccccc1)N[C@H](Cc1c[nH]c2ccccc12)C(=O)NCC1(c2ccccc2)CC1
EC50 (fMet-Leu-Phe receptor): Not Active | EC50 [2]: Not Active | Stability [1]: 4% | EC50 [3]: Not Active

O=C(Nc1ccccc1)N[C@@H](Cc1c[nH]c2ccccc12)C(=O)NCC1(c2ccccc2)CC1
pEC50 (fMet-Leu-Phe receptor): 5.62 | pEC50 [2]: 5.82 | Stability [1]: 5% | pEC50 [3]: 5.17

N#Cc1ccc(C[C@H](NC(=O)Nc2ccc(F)cc2)C(=O)NCC2(c3ccc(OC(F)(F)F)cc3)CC2)cc1
EC50 (fMet-Leu-Phe receptor): Not Active | EC50 [2]: Not Active | Stability [1]: 80% | EC50 [3]: Not Active

O=C(Nc1ccc(F)cc1)N[C@@H](Cc1c[nH]c2ccccc12)C(=O)NCC1(c2ccccc2)CC1
pEC50 (fMet-Leu-Phe receptor): 4.73 | EC50 [2]: Not Active | Stability [1]: 4% | pEC50 [3]: 5.70

COc1ccc(NC(=O)N[C@H](Cc2c[nH]c3ccccc23)C(=O)NCC2(c3ccccc3)CC2)cc1
EC50 (fMet-Leu-Phe receptor): Not Active | EC50 [2]: Not Active | Stability [1]: 4% | pEC50 [3]: 5.19

N#Cc1ccc(C[C@@H](NC(=O)Nc2ccc([N+](=O)[O-])cc2)C(=O)NCC2(c3ccccc3)CC2)cc1
t1/2 [4]: 1.58 h | pEC50 (fMet-Leu-Phe receptor): 5.33 | pEC50 [2]: 5.39 | Efficacy [5]: 75% | Efficacy [6]: 90% | Stability [1]: 38% | pEC50 [3]: 5.82 | Efficacy [7]: 150% | Microsomal intrinsic clearance (CLint) [8]: 7.29 µL/min/mg

COc1ccc(NC(=O)N[C@H](Cc2ccc(C#N)cc2)C(=O)NCC2(c3ccc(F)c(Cl)c3)CC2)cc1
pEC50 (fMet-Leu-Phe receptor): 6.20 | pEC50 [2]: 6.14 | Efficacy [5]: 100% | Efficacy [6]: 60% | Stability [1]: 5% | pEC50 [3]: 5.74 | Efficacy [7]: 115%

COc1ccc(NC(=O)N[C@@H](Cc2ccc(C#N)cc2)C(=O)NCC2(c3ccc(F)c(Cl)c3)CC2)cc1
pEC50 (fMet-Leu-Phe receptor): 6.35 | pEC50 [2]: 6.48 | Efficacy [5]: 115% | Efficacy [6]: 60% | Stability [1]: 10% | pEC50 [3]: 5.47 | Efficacy [7]: 155%

Cc1ccc(C2(CNC(=O)[C@@H](Cc3ccc(C#N)cc3)NC(=O)Nc3ccc(F)cc3)CC2)cc1F
t1/2 [4]: 0.983 h | EC50 (fMet-Leu-Phe receptor): Not Active | EC50 [2]: Not Active | Stability [1]: 37% | EC50 [3]: Not Active | Microsomal intrinsic clearance (CLint) [8]: 10.04 µL/min/mg

COc1ccc(NC(=O)N[C@@H](Cc2c[nH]c3ccccc23)C(=O)NCC2(c3ccccc3)CC2)cc1
pEC50 (fMet-Leu-Phe receptor): 6.02 | pEC50 [2]: 5.85 | Stability [1]: 3% | pEC50 [3]: 6.96

O=C(Nc1ccc([N+](=O)[O-])cc1)N[C@@H](Cc1cccnc1)C(=O)NCC1(c2ccccc2)CC1
t1/2 [4]: 1.83 h | pEC50 (fMet-Leu-Phe receptor): 6.07 | pEC50 [2]: 6.14 | Efficacy [5]: 125% | Efficacy [6]: 60% | Stability [1]: 51% | pEC50 [3]: 5.19 | Efficacy [7]: 65% | Microsomal intrinsic clearance (CLint) [8]: 6.3 µL/min/mg

COc1ccc(NC(=O)N[C@@H](Cc2ccc(C#N)cc2)C(=O)NCC2(c3ccc(C)c(F)c3)CC2)cc1
pEC50 (fMet-Leu-Phe receptor): 4.99 | pEC50 [2]: 5.77 | Stability [1]: 8% | pEC50 [3]: 4.79

N#Cc1ccc(C[C@@H](NC(=O)Nc2ccc(F)cc2)C(=O)NCC2(c3ccc(OC(F)(F)F)cc3)CC2)cc1
EC50 (fMet-Leu-Phe receptor): Not Active | EC50 [2]: Not Active | Stability [1]: 88% | EC50 [3]: Not Active

COc1ccc(NC(=O)N[C@@H](Cc2ccc(C#N)cc2)C(=O)NCC2(c3ccc(OC(F)(F)F)cc3)CC2)cc1
EC50 (fMet-Leu-Phe receptor): Not Active | EC50 [2]: Not Active | Stability [1]: 51% | EC50 [3]: Not Active

From ChEMBL document CHEMBL4130539, “Novel ureidopropanamide based N-formyl peptide receptor 2 (FPR2) agonists with potential application for central nervous system disorders characterized by neuroinflammation” (Eur J Med Chem, 2017)
